Target: T1, MreB (MreB1) (Thermotoga maritima, UniProt Q9WZ57)
T1 sequence (Q9WZ57 1-336): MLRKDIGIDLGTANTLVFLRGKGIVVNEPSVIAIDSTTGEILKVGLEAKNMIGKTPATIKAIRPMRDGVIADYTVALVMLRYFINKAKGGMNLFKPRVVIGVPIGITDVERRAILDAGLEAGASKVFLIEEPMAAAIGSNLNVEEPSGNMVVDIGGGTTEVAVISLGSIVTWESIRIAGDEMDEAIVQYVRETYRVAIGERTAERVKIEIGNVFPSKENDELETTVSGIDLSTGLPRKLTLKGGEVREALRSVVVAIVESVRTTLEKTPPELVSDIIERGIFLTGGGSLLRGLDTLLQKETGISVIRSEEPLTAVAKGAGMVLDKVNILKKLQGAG
Test: STD NMR titration
Type: binding

**Q.** `N=C(N)SCc1ccc(Cl)c(Cl)c1` [A22, S-(3,4-dichlorobenzyl)isothiourea] was tested. Which Kd did it give?
**A.** The Kd was 1.32 ± 0.14 µM.

Reference: PMC3951351 (Biochemistry, 2009)
